The values below come from ChEMBL document CHEMBL1201862, “PubChem BioAssay data set” (2004).

What is called GI50 is the concentration that inhibits growth by half.

The structures appear in SMILES notation.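 Five concentrations, 48 hours, 96-well plates. GI50: concentration for 50% inhibition of growth.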 Activity calls are given as the source filed them. No stated cut-off is given here; in the data, active = GI50 up to about 1.1 µM and inactive = higher.

Common to all, as to experiment: DTP human tumour cell line panel, 48 h
Experiment [1] relates to PC-3.
Experiment [2] deals with CAKI-1.
Experiment [3] has as its system OVCAR-8.
The test system of experiment [4] is RPMI-8226.
Experiment [5] deals with UACC-62.
Experiment [6] deals with SN12C.
Experiment [7] deals with T47D.
Experiment [8] relates to SNB-19.
Experiment [9] deals with MCF7.
For experiment [10], the system named is SF-295.
The test system of experiment [11] is NCI-H23.
For experiment [12], the system named is Hs-578T.
The test system of experiment [13] is LOX IMVI.
Experiment [14] has as its system HT-29.
Experiment [15] deals with HOP-92.
The test system of experiment [16] is A498.
Experiment [17] relates to HCC 2998.

On to `S=C1CC(c2ccc(Cl)cc2)Sc2ccccc2N1` (stereo unspecified), for which the GI50 in experiment [1] is 24.2 µM (inactive); in experiment [2], 41.4 µM (inactive); in experiment [3] it was > 100 µM (inactive); in experiment [4], 24.3 µM (inactive); in experiment [5] it was 31.6 µM (inactive); in experiment [6], 78.5 µM (inactive). In addition, the GI50 in experiment [7] was 40.4 µM (inactive); in [8] it was 27.8 µM (inactive); in experiment [9], 39.4 µM (inactive); in experiment [10], > 100 µM (inactive); in experiment [11], 37.2 µM (inactive); in [12] it was 11.9 µM (inactive). The values for the GI50 in experiment [13] and in experiment [14] were 40.8 µM (inactive) and > 100 µM (inactive), respectively.

As to `O=C(Nc1nnc(-c2c(Cl)c(Cl)c(Cl)c(Cl)c2-c2nc3cc(C(=O)c4ccccc4)ccc3[nH]2)o1)c1ccc(Cl)cc1`, the GI50 in experiment [1] was 25.1 µM (inactive); in experiment [2] it was 40.7 µM (inactive); in experiment [3], 39.2 µM (inactive); in experiment [4] it was 81.7 µM (inactive); in [15], 20.5 µM (inactive); in [6], 17.9 µM (inactive). Also, the GI50 in [7] is 30.5 µM (inactive); in experiment [8], 34 µM (inactive); in experiment [9] it was 20.2 µM (inactive); in experiment [10], 5.86 µM (inactive); in [16], 18.2 µM (inactive); in experiment [11], 26.8 µM (inactive). Besides, the GI50 in experiment [13] was 34.8 µM (inactive); in [14], 37.9 µM (inactive).

For the compound `O=C1CCSCCC(=O)Nc2ccccc2N1`, the GI50 in experiment [1], in experiment [2], in [3], in experiment [4], in experiment [5] and in experiment [15] was > 100 µM (inactive) throughout. In addition, the GI50 in [6], in experiment [7], in [8], in experiment [10], in experiment [16] and in experiment [11] was > 100 µM (inactive) in each case. Further, the GI50 in experiment [12] was 88.3 µM (inactive); in [13], > 100 µM (inactive); in experiment [14], > 100 µM (inactive).

As for `C#CC1(OC(C)=O)CCC2C3CC=C4C=C(OC(C)=O)CCC4(C)C3CCC21C` (stereo unspecified), the GI50 was 36.5 µM (inactive) in experiment [2]; 19.1 µM (inactive) in experiment [3]; < 0.01 µM (active) in experiment [4]; 18.3 µM (inactive) in [5]; 16.1 µM (inactive) in experiment [15]; 19.5 µM (inactive) in [6]. For the same compound, the GI50 is 61.5 µM (inactive) in experiment [7]; 32.4 µM (inactive) in [8]; 24.5 µM (inactive) in experiment [9]; 25.2 µM (inactive) in experiment [10]; 46.6 µM (inactive) in experiment [16]; 18.3 µM (inactive) in experiment [11]. In addition, the GI50 in [12] was 40.4 µM (inactive); in experiment [13] it was 22.7 µM (inactive); in experiment [14], 17.2 µM (inactive); in experiment [17] it was 16 µM (inactive).

Regarding `CSC1=C(C(=O)Nc2ccccc2)C(N)=NC1=O`, the GI50 is > 100 µM (inactive) in experiment [1]; 27.5 µM (inactive) in [2]; > 100 µM (inactive) in [3]; > 100 µM (inactive) in experiment [4]; 62.8 µM (inactive) in [5]; > 100 µM (inactive) in experiment [6]. For the same compound, the GI50 in experiment [7] was 92.7 µM (inactive); in [8], > 100 µM (inactive); in experiment [9], 89.7 µM (inactive); in [16] it was 56.2 µM (inactive); in [11] it was > 100 µM (inactive); in experiment [12], > 100 µM (inactive). The GI50 in experiment [13], in [14] and in [17] was > 100 µM (inactive) in each case.

As for `O=C(OCc1ccccc1)c1nc2ccccc2n1S(=O)(=O)c1ccccc1`, the GI50 in experiment [1], in experiment [2], in [3], in experiment [4], in experiment [5] and in experiment [15] was > 100 µM (inactive) each time. The GI50 in [6] is > 100 µM (inactive); in experiment [7] it was 59.2 µM (inactive); in experiment [8] it was > 100 µM (inactive); in [10], > 100 µM (inactive); in experiment [16], > 100 µM (inactive); in [11] it was > 100 µM (inactive). In addition, the GI50 in experiment [12], in [13], in experiment [14] and in [17] was > 100 µM (inactive) throughout.

As to `Fc1ccc(-c2sc(-c3cccs3)cc2Cc2cccs2)cc1`, the GI50 in experiment [2], in experiment [3], in experiment [5], in [15], in experiment [6] and in experiment [7] was > 100 µM (inactive) each time. Also, the GI50 in experiment [8], in experiment [9], in experiment [10], in experiment [16], in experiment [11] and in experiment [12] was > 100 µM (inactive) throughout. Also, the GI50 in experiment [13] was > 100 µM (inactive); in [14] it was 80.2 µM (inactive); in [17] it was > 100 µM (inactive).

Take `C=CCn1c(=O)c2ccccc2[n+]2c(C)c(C(=O)OCC)sc12`: the GI50 in [1], in experiment [2], in experiment [3], in [4], in [5] and in experiment [6] was > 100 µM (inactive) throughout. Further, the GI50 was > 100 µM (inactive) in [7]; > 100 µM (inactive) in experiment [8]; > 100 µM (inactive) in experiment [9]; 42.7 µM (inactive) in experiment [10]; > 100 µM (inactive) in experiment [11]; > 100 µM (inactive) in experiment [12]. Moreover, the GI50 in [13], in experiment [14] and in experiment [17] was > 100 µM (inactive) throughout.

For the compound `COc1cc([C@@H]2c3cc4c(cc3C[C@H]3COC(=O)[C@@H]32)OCO4)cc2c1OCO2` [AUSTROBAILIGNAN 1], the 50% growth inhibitory concentration (GI50) in experiment [1], in experiment [2], in [3], in experiment [4], in [5] and in [15] was < 0.01 µM (active) each time. For the same compound, the GI50 in experiment [6], in [8], in experiment [9], in [10], in [16] and in experiment [11] was < 0.01 µM (active) in each case. Besides, the GI50 in [12], in [13], in [14] and in experiment [17] was < 0.01 µM (active) in each case.
